Read-outs that look alike come from different tables or passages of the source.

Our source for the inhibition values is US20180244625A1, “FUNGICIDAL COMPOSITIONS” (Syngenta Participations AG, priority 2015, published 2018).

The test system of the test is Uncinula necator. As to the kind of experiment: Uncinula necator/Grape (powdery mildew on grape), preventive spray test on grape seedlings. It counts as in vivo. The following applies: Erysiphe necator. The source says: A synergistic effect exists whenever the action of an active ingredient combination is greater than the sum of the actions of the individual components. The action to be expected E for a given active ingredient combination obeys the so-called COLBY formula and can be calculated as follows (COLBY, S. R. “Calculating synergistic and antagonistic responses of herbicide combination”, Weeds, Vol. 15, pages 20-22; 1967): ppm=milligrams of active ingredient (=a.i.) per liter of spray mixture X=% action by active ingredient (A) using p ppm of active ingredient Y=% action by active ingredient (B) using q ppm of active ingredient. According to COLBY, the expected (additive) action of active ingredients (A)+(B) using p+q ppm of active ingredient is [formula] If the action actually observed (O) is greater than the expected action (E), then the action of the combination is super-additive, i.e. there is a synergistic effect. In mathematical terms, synergism corresponds to a positive value for the difference of (O-E). In the case of purely complementary addition of activities (expected activity), said difference (O-E) is zero. A negative value of said difference (O-E) signals a loss of activity compared to the expected activity. Uncinula necator/Grape (Powdery Mildew on Grape) Five-week-old grape seedlings cv. Gutedel were treated with the formulated testcompound in a spray chamber. One day after application grape plants were inoculated by shaking plants infected with grape powdery mildew above the test plants. After an incubation period of 7 days at 26° C. and 60% r. h. under a light regime of 14/10 h (light/dark) the disease incidence was assessed.

For orientation: inhibition means the relative decrease from the control value, in per cent. Consider `CON(C(=O)c1cn(C)nc1C(F)F)C(C)Cc1c(Cl)cc(Cl)cc1Cl` (stereo not shown) [Compound 1.001, 3-(difluoromethyl)-N-methoxy-1-methyl-N-[1-methyl-2-(2,4,6-trichlorophenyl)ethyl]pyrazole-4-carboxamide], for which the inhibition at 0.1 µg/mL (168 h, Compound 1.001 0.1 mg/l alone, grape seedlings cv. Gutedel, 7 days after inoculation) stood at 90.4%. Further, the inhibition at 10 pg/mL (Compound 1.001 0.00001 mg/l alone, read-out: Compound 1.001 inhibition (%)) came out at 0%. The inhibition at 0.0001 µg/mL (Compound 1.001 0.0001 mg/l alone, read-out: Compound 1.001 inhibition (%)) was 0%. Also, the inhibition at 0.001 µg/mL (Compound 1.001 0.001 mg/l alone, read-out: Compound 1.001 inhibition (%)) stood at 1.7%. Moreover, the inhibition at 0.01 µg/mL (Compound 1.001 0.01 mg/l alone, read-out: Compound 1.001 inhibition (%)) worked out at 12.9%.

Take `COc1ccccc1N1CCS/C1=C(/C#N)Sc1cc(C(F)(F)F)ccc1F` [Flutianil, (2Z)-{[2-fluoro-5-(trifluoromethyl)phenyl]sulfanyl}[3-(2-methoxyphenyl)-1,3-thiazolidin-2-ylidene]acetonitrile]: the inhibition at 1 pg/mL (Flutianil 0.000001 mg/l alone) stood at 0%. For the same compound, under “Flutianil 0.00001 mg/l alone, read-out: Flutianil Inhibition (%)”, the inhibition at 10 pg/mL was 1.3%. Moreover, the inhibition at 0.0001 µg/mL (Flutianil 0.0001 mg/l alone, read-out: Flutianil Inhibition (%)) came to 1%. Moreover, the inhibition at 0.001 µg/mL (Flutianil 0.001 mg/l alone, read-out: Flutianil Inhibition (%)) is 26.8%. For the setting “Flutianil 0.01 mg/l alone, read-out: Flutianil Inhibition (%)”, the inhibition at 0.01 µg/mL amounted to 100%.
